Entries after “also recorded” stand apart in the source; their conditions may differ.
Legend:
[1] = test system: primary acute myeloid leukaemia (AML) blasts; test: In vitro cytotoxicity assay (annexin V apoptosis) in primary acute myeloid leukemia cells; format: cell-based, human
Method: NUC-1031 was assayed for its cytotoxic effects on primary cultures of acute myeloid leukaemia (AML) blasts. LD50 values (the concentration required to kill 50% of the tumour cells in culture) were calculated in respect of NUC-1031 and gemcitabine.
Bone marrow samples were collected in ethylenediaminetetraacetic acid (EDTA) from newly diagnosed, previously untreated, acute myeloid leukemia (AML) patients. AML blasts were enriched by density gradient centrifugation using Histopaque (Sigma, Poole, UK) and were subsequently maintained in Roswell Park Memorial Institute medium (RPMI) supplemented with 10% foetal bovine serum (FBS). Cells were treated with Gemcitabine or NUC-1031 at concentrations between 0.25 µM and 10 µM, and incubated for 48h. All cultures were maintained at 37° C. in a 5% CO2 humidified atmosphere.
Cells were harvested and labelled with CD34-fluorescein isothiocyanate (FITC) (BD Biosciences, Buckingham, UK) and then resuspended in 200 µl of binding buffer containing 4µl of annexin V labelled with allophycocyanin (APC) (eBioscience Ltd, Hatfield, UK). Apoptosis was quantified in the CD34^+ AML cells using an Accuri C6 flow cytometer (Becton Dickinson, CA, USA). At least 10,000 events were acquired and data were subsequently analysed using FlowJo software (Tree Star Inc., Ashland, OR, USA). All LD50 values (concentration of drug required to kill 50% of cells) were derived from the dose-response curves.

[2] = test system: CD34^+/CD123^+ leukaemic stem cells; test: Quantification of CD34+/CD123+ sub-populations in primary AML cells; format: cell-based, human
Method: Putative leukaemic stem cells were identified by dual expression of CD34 and CD123. The relative sensitivity of these cells to the effects of gemcitabine and NUC-1031 were assessed as a function of the percentage of these cells that remained viable following exposure to molar equivalents of each agent.

With “gemcitabine-[phenyl-benzoxy-L-alaninyl)]-phosphate [NUC-1031]” the “cytotoxic potency on CSCs and non-stem cancer cells compared with gemcitabine” value ([1]; AML blast cultures) was “increased potency”, the “mean LD50” value ([1]; primary AML blasts, CD34+ cells, 48h, annexin V) was 1.6 µM and the “CD34^+/CD123^+ leukaemic stem cell viability as compared to gemcitabine” value ([2]; 1 µM and 2.5 µM) was “significant reductions”. For the same substance, the “depletion of CSCs (CD34^+/CD123^+ cells) compared with gemcitabine” value ([2]; AML blast cultures, micromolar concentrations) was “enhanced ability to deplete CSCs; also recorded: preferentially depletes CD34^+/CD123^+ cells”.

From patent US20230226092A1, “CANCER […] ON G[…]” (NuCana plc, priority 2015, published 2023)
